From US11498900B2, “Salts of an LSD1 inhibitor” (Incyte Corporation, priority 2015, dated 2022)

Experiments:
Format in all cases: physicochemical
[1] = Solid form conversion on storage or exposure to humidity
Method: Form HI of Compound I di-tosylate salt was prepared during the process of drying a wet sample of Compound I di-tosylate salt, Form I, under ambient conditions. […] Form HI can also be generated by purging humidified air (e.g., 60-85% RH) through Form I solid.
Form HIII was prepared by drying Form HI on Vapor Sorption Analyzer (TA Instruments VTI-SA^+) at 40° C. with 0% RH N2 for 3 h and then exposing it to humidity at about 30-50% RH at 25° C. for 1 day.
Form DH was prepared by drying Form HI on Vapor Sorption Analyzer (TA Instruments VTI-SA*) at 25° C. with 0% RH N2 for 2 days.

[2] = Dynamic vapor sorption (DVS) analysis; details: 25° C.; for Hygroscopicity (DVS adsorption/desorption isotherm): bis(4-methylbenzenesulfonate)
Method: (§1) Form I was characterized by DVS. The DVS analysis was performed on a TA Instruments Vapor Sorption Analyzer, model VTI-SA^+. The sample was pre-dried on VTI at 50° C. with 0% RH N2 for 1 h. Then the moisture uptake profile was completed in one cycle in 5% RH increments with adsorption from 0% RH to 95% RH followed by desorption in 5% increments from 95% to 5% RH. The equilibration criteria were 0.0050 wt % in 5 minutes with a maximum equilibration time of 180 minutes. All adsorption and desorption were performed at 25° C.
as §1, with “Form HI” for “Form I”, “The” for “The sample was pre-dried on VTI at 50° C. with 0% RH N2 for 1 h. Then the”, “from 35%” for “from 0%”, “were 0.0010” for “were 0.0050”, “C. No pre-drying step was applied for the sample.” for “C.”
Form DH was characterized by DVS. The DVS analysis was performed on a TA Instruments Vapor Sorption Analyzer, model VTI-SA^+. Form DH was generated by pre-drying Form HI on VTI at 40° C. with 0% RH N2 for 3 h. Then the moisture uptake profile was completed in one cycle in 5% RH increments with adsorption from 0% RH to 95% RH followed by desorption in 5% increments from 95% to […]. The equilibration criteria were 0.0010 wt % in 5 minutes with a maximum equilibration time of 180 minutes. All adsorption and desorption were performed at 25° C.

[3] = Concentration of saturated solution in ethanol
Method: In one experiment, Form IIIa was prepared by adding 0.4 mL of saturated solution of Form I in ethanol (60 mg/mL) to 3.0 mL of IPAc. The resulting solid was filtered. Form IIIa was also prepared according to the procedure set forth in Example 13 using EtOH/IPAc as a solvent pair.
In one experiment, Form X was prepared by adding 0.3 mL of saturated solution of Form I in ethanol (60 mg/mL) to 2.5 mL of heptane. The resulting solid was filtered. Form X was also prepared according to the procedure set forth in Example 13 using EtOH/heptane as a solvent pair.

[4] = Thermogravimetric analysis (TGA), decomposition; details: ramp 20° C. to 600° C. at 20° C./min, nitrogen
Method: Form I was characterized by TGA. The TGA was obtained using a TA Instrument Thermogravimetric Analyzer, Model Q500. The general experimental conditions for TGA were: ramp from 20° C. to 600° C. at 20° C./min; nitrogen purge, gas flow at 40 mL/min followed by balance of the purge flow; sample purge flow at 60 mL/min; platinum sample pan. A weight loss of about 3.5% up to 150° C. was observed and believed to be associated with the loss of moisture and residual solvents.

[5] = Competitive slurry experiment, relative stability of polymorph forms; details: in butanone and butanone/heptane (1:1)
Method: In order to evaluate the relative stability relationship of the various Compound I di-tosylate polymorph forms, a competitive slurry experiment with a mixture of Form I, II, III and IIIa through Form XII was conducted in butanone-heptane at 50° C. according to Procedure 1 below and in butanone at 25° C. according to Procedure 2 below. The mixture of thirteen polymorphs was converted to Form I after stirring in butanone/heptane (1:1) at 50° C. for 6-18 hours and after stirring in butanone at 25° C. for 6-18 hours.
Procedure 1 competitive experiment in butanone-heptane at 50° C.:
Procedure 2 competitive experiment in butanone at 25° C.: […]

[6] = Physical stability of Form HI under different humidity conditions
Method: Physical stability of Form HI was studied under different humidity conditions. The humidity was controlled at 25° C. using Vapor Sorption Analyzer (TA Instruments, Model VTI-SA*). Approximately 20 mg of Form HI in the sample holder was placed inside the humidity chamber of the instrument and held under constant humidity. A sample in an open glass vial was also set up under ambient conditions. After a certain period of time, the sample was removed and characterized by XRPD, DSC, and TGA. Weight loss by TGA was mostly associated with loss of water. The experimental parameters of XRPD, DSC, and TGA are analogous to those in Example 6 for Form HI.
Form HI was stable for 10 days under humidity conditions of 10-85% RH and was stable for 60 days under ambient conditions. […] The table below provides the data for the physical stability of Form HI at 25° C. (open vial).

[7] = high humidity about 60-85% RH, bis(4-methylbenzenesulfonate)
[8] = 0% RH, 2 days, 25° C., open vial
[9] = 5% RH, 7 days, 25° C., open vial
[10] = 10% RH, 10 days, 25° C., open vial
[11] = 30% RH, 5 days, 25° C., open vial
[12] = 75% RH, 10 days, 25° C., open vial
[13] = 85% RH, 10 days, 25° C., open vial
[14] = 90% RH, 4 days, 25° C., open vial

For `COCC1(CN[C@@H]2C[C@H]2c2ccccc2)CCN(CC2(C(=O)O)CCC2)CC1` [Form DH, 1-{[4-(methoxymethyl)-4-({[(1R,2S)-2-phenylcyclopropyl]amino}methyl)piperidin-1-yl]methyl}cyclobutanecarboxylic acid bis(4-methylbenzenesulfonate)], which “Solid form change on exposure to humidity” value ([1]; about 30-50% RH) is on record?
The value was “change to Form HIII”.

And the “Solid form change on exposure to humidity” value [1, 7]?
The value was “Form HI”.

And the “Hygroscopicity (DVS adsorption/desorption isotherm)” value [2]?
The value was “hygroscopic”.

And the “Solid form collected after DVS” value ([2]; after DVS at 85% RH)?
Its value is “Form HI”.

Which “Concentration of saturated solution” value [3] does the source give for `COCC1(CN[C@@H]2C[C@H]2c2ccccc2)CCN(CC2(C(=O)O)CCC2)CC1` [Form I, 1-{[4-(methoxymethyl)-4-({[(1R,2S)-2-phenylcyclopropyl]amino}methyl)piperidin-1-yl]methyl}cyclobutanecarboxylic acid bis(4-methylbenzenesulfonate)] here?
Its value is 60 mg/mL.

And the Solid form change ([1]; drying of wet sample under ambient conditions, atmospheric moisture)?
The Solid form change was “changed to crystalline Form HI”.

And the “Solid form change on storage” value ([1]; storage 25° C./60% RH)?
The value was “converted to Form HI”.

And the “Solid form change on storage” value ([1]; storage 40° C./75% RH)?
Its value is “converted to Form HI”.

And the “Temperature after which significant decomposition starts (TGA)” value [4]?
The value was over 200 °C.

What about the “Relative stability of polymorphic forms” value [5] of the same molecule?
The value was “most stable polymorphic form”.

And the “Hygroscopicity (DVS adsorption/desorption isotherm)” value [2]?
The value was “hygroscopic”.

Which “Solid form change on exposure to humidity” value [1, 7] does the source give for `COCC1(CN[C@@H]2C[C@H]2c2ccccc2)CCN(CC2(C(=O)O)CCC2)CC1` [Form HIII, 1-{[4-(methoxymethyl)-4-({[(1R,2S)-2-phenylcyclopropyl]amino}methyl)piperidin-1-yl]methyl}cyclobutanecarboxylic acid bis(4-methylbenzenesulfonate)] here?
The value was “change to Form HI”.

For `COCC1(CN[C@@H]2C[C@H]2c2ccccc2)CCN(CC2(C(=O)O)CCC2)CC1` [Form HI, 1-{[4-(methoxymethyl)-4-({[(1R,2S)-2-phenylcyclopropyl]amino}methyl)piperidin-1-yl]methyl}cyclobutanecarboxylic acid bis(4-methylbenzenesulfonate)], which “% Wt Loss by TGA (25-120° C.)” value [6, 8] is on record?
The value was 2.30%.

What about the “DSC (° C.) (Peak Temperature)” value [6, 8] of the same molecule?
Its value is 97.5 °C.

And the “XRPD (solid form)” value [6, 8]?
Its value is “Form DH”.

What about the “% Wt Loss by TGA (25-120° C.)” value [6, 9] of the same molecule?
Its value is 2.93%.

What about the “DSC (° C.) (Peak Temperature)” value [6, 9] of the same molecule?
Its value is 81.2 °C.

And the “XRPD (solid form)” value [6, 9]?
Its value is “Form HI”.

What about the “% Wt Loss by TGA (25-120° C.)” value [6, 10] of the same molecule?
The value was 5.05%.

What about the “DSC (° C.) (Peak Temperature)” value [6, 10] of the same molecule?
Its value is 82.4 °C.

What about the “XRPD (solid form)” value [6, 10] of the same molecule?
Its value is “Form HI”.

What about the Physical stability ([6]; 10-85% RH, 10 days, 25° C.) of the same molecule?
Its Physical stability is “stable”.

What about the “% Wt Loss by TGA (25-120° C.)” value [6, 11] of the same molecule?
Its value is 5.38%.

And the “DSC (° C.) (Peak Temperature)” value [6, 11]?
Its value is 80.7 °C.

What about the “XRPD (solid form)” value [6, 11] of the same molecule?
The value was “Form HI”.

And the “% Wt Loss by TGA (25-120° C.)” value [6, 12]?
The value was 5.30%.

And the “DSC (° C.) (Peak Temperature)” value [6, 12]?
The value was 79.8 °C.

And the “XRPD (solid form)” value [6, 12]?
The value was “Form HI”.

What about the “% Wt Loss by TGA (25-120° C.)” value [6, 13] of the same molecule?
Its value is 5.35%.

And the “DSC (° C.) (Peak Temperature)” value [6, 13]?
The value was 79.9 °C.

What about the “XRPD (solid form)” value [6, 13] of the same molecule?
Its value is “Form HI”.

And the Physical stability ([6]; 90% RH, 25° C.)?
The Physical stability was “change to Form HII”.

What about the “% Wt Loss by TGA (25-120° C.)” value [6, 14] of the same molecule?
The value was 6.04%.

And the “DSC (° C.) (Peak Temperature)” value [6, 14]?
Its value is 80.0 °C.

What about the “XRPD (solid form)” value ([6]; 90% RH, 4 days, 25° C., open vial, cell wraps over r12-r14: Form HI + Form HII (minor)) of the same molecule?
Its value is “Form HI +”.

And the “% Wt Loss by TGA (25-120° C.)” value ([6]; 90% RH, 10 days, 25° C., open vial)?
Its value is 9.4%.

And the “XRPD (solid form)” value ([6]; 90% RH, 10 days, 25° C., open vial, cell wraps over r15-r16: Form HI + Form HII)?
The value was “Form HI +”.

And the “% Wt Loss by TGA (25-120° C.)” value ([6]; Ambient, 60 days, open vial)?
Its value is 4.77%.

What about the “DSC (° C.) (Peak Temperature)” value ([6]; Ambient, 60 days, open vial) of the same molecule?
The value was 79.8 °C.

What about the “XRPD (solid form)” value ([6]; Ambient, 60 days, open vial) of the same molecule?
Its value is “Form HI”.

And the Physical stability ([6]; ambient conditions, 60 days, open vial)?
The Physical stability was “stable”.

And the Physical stability ([6]; below 10% RH, 25° C.)?
The Physical stability was “de-hydrated”.

What about the “Hygroscopicity (DVS adsorption/desorption isotherm)” value [2] of the same molecule?
The value was “slightly hygroscopic”.
